Assay results as given in patent US8492342B2, “Preprocalcitonin antigen T epitopes” (Institut Gustave Roussy, priority 2007, dated 2013).

Experiments:
[1] = system: SPP; experiment: SPP expression in IGR-Heu cells electroporated with siRNA (real-time RT-PCR; protein); format: cell-based, human; conditions: for SPP expression at RNA level: 50 nM siRNA, 72 h, FIG. 5B; for SPP expression at protein level: data not shown
Experimental: (§1) FIG. 5: Processing of the preprocalcitonin16-25 antigenic peptide involves SP and SPP. A. IGR-Heu tumor cells were incubated for 2 h at 37° C. with the serine protease inhibitor dichloroisocoumarin (DCI) at 250 μM, before addition of anti-preprocalcitonin (left panel) or anti-α-actinin-4 (right panel) CTL clones. B. Analysis of SPP mRNA expression by real-time RT-PCR analysis. Total RNA extracted from IGR-Heu tumor cells, electroporated or not with siRNA targeting SPP (siRNA-S1, siRNA-S2), was reverse-transcribed and quantified by TaqMan as described in Materials and Methods. C. Effect of SPP extinction on tumor cell recognition. Lytic activity of CTL clones Heu161 and Heu127 against IGR-Heu target cells, electroporated or not with siRNA-S1, siRNA-S2 or control siRNA, determined by a conventional 4 h ^51Cr-release assay at the indicated E/T ratios. Two representative experiments of six are shown for CTL clone Heu161. D. Production of IFNγ by Heu161 and Heu127 CTL clones stimulated with tumor cells electroporated or not with siRNA-S1 or control siRNA. E. The preprocalcitonin16-25 antigenic peptide is located at the C-terminus of the signal sequence of the calcitonin hormone precursor. The optimal peptide recognized by CTL clone Heu161 is boxed. Arrows indicate the signal peptidase (SP) and the approximate signal peptide peptidase (SPP) cleavage sites. The n, h and c regions in the preprocalcitonin signal peptide were predicted using SignalP 3.0 software.
For SPP inhibition, we first tried the cysteine protease inhibitor Z-LL2 ketone (Calbiochem, Darmstadt, Germany), which was reported to specifically block SPP activity (WEIHOFEN et al., J Biol Chem, 275, 30951-6, 2000). No conclusive results were obtained in functional assays. We thus used siRNA targeting human SPP, siRNA-S1 (5-GACAUGCCUGAAACAAUCAtt-3; SEQ ID NO: 3) and siRNA-S2 (5-UGAUUGUUUCAGGCAUGUCtg-3; SEQ ID NO: 4), purchased from Ambion (Austin, Tex. USA). Non-targeting siRNA (Ambion) were used as negative control (siRNA Control). Briefly, IGR-Heu cells were transfected by electroporation with 50 nM siRNA in a Gene Pulser Xcell Electroporation System (Bio-Rad; 300 V, […]) as previously described (LE FLOC'H et al., J Exp Med, 2007) and then allowed to grow for 72 h.
For SPP mRNA expression, total RNA from IGR-Heu cells, transfected or not with siRNA-S 1 and siRNA-S2 targeting SPP, was extracted, reverse-transcribed and quantified by real-time RT-PCR analysis (TaqMan). PCR primers and probe were designed by Applied Biosystems and used according to the manufacturer's recommendations. The amount of RNA sample was normalized by amplification of an endogenous control (18S). […]

[2] = system: IGR-Heu tumor cells; experiment: Lysis (4 h 51Cr-release) by CTL clones of siRNA-electroporated IGR-Heu target cells; format: cell-based, human; conditions: CTL Heu161, FIG. 5C
Experimental: as §1, with “The optimal peptide recognized by CTL clone Heu161 is boxed. Arrows indicate the signal peptidase (SP) and the approximate signal peptide peptidase (SPP) cleavage sites. The n, h and c regions in the preprocalcitonin signal peptide were predicted using SignalP 3.0 software.” left out
(§2) Cytotoxic activity was measured by a conventional 4-h ^51Cr-release assay using triplicate cultures in round-bottomed 96-well plates. Percent specific cytotoxicity was calculated conventionally; SD were <5%. […]

[3] = system: IGR-Heu tumor cells; experiment: SP inhibition: lysis by CTL clones of DCI-treated IGR-Heu tumor cells; format: cell-based, human; conditions: pre-incubation of IGR-Heu, 250 μM, 2 h 37° C.; FIG. 5A
Experimental: as §1, with “The optimal peptide recognized by CTL clone Heu161 is boxed. Arrows indicate the signal peptidase (SP) and the approximate signal peptide peptidase (SPP) cleavage sites. The n, h and c regions in the preprocalcitonin signal peptide were predicted using SignalP 3.0 software.” left out
as §2

[4] = biological target: T1, human TAP (Homo sapiens, UniProt Q03518+Q03519); experiment: TAP involvement: CTL recognition of 293-EBNA transfectants cotransfected with ICP47; format: cell-based
T1 construct: endogenous in cells; host or cells: 293-EBNA cells
T1 sequence (Q03518 1-748): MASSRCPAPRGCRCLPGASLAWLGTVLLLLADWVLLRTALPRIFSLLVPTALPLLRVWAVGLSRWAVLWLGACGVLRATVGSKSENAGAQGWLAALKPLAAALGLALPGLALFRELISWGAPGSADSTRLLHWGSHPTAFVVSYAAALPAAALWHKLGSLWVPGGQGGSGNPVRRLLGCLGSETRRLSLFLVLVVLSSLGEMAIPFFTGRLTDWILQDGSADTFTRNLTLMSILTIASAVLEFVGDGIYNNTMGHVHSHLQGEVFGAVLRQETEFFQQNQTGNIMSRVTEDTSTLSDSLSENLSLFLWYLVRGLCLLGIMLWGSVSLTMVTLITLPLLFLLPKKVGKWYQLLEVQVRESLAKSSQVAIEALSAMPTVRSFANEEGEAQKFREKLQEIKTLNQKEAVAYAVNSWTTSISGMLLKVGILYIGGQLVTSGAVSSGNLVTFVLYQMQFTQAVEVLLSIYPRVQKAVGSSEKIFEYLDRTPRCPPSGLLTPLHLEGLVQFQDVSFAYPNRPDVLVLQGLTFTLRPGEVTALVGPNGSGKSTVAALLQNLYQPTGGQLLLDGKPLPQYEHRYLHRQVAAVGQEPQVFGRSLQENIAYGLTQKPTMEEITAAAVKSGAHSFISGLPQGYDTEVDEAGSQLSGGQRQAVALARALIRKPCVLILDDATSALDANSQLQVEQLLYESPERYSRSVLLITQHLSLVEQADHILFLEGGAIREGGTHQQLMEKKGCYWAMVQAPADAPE
T1 sequence (Q03519 1-686): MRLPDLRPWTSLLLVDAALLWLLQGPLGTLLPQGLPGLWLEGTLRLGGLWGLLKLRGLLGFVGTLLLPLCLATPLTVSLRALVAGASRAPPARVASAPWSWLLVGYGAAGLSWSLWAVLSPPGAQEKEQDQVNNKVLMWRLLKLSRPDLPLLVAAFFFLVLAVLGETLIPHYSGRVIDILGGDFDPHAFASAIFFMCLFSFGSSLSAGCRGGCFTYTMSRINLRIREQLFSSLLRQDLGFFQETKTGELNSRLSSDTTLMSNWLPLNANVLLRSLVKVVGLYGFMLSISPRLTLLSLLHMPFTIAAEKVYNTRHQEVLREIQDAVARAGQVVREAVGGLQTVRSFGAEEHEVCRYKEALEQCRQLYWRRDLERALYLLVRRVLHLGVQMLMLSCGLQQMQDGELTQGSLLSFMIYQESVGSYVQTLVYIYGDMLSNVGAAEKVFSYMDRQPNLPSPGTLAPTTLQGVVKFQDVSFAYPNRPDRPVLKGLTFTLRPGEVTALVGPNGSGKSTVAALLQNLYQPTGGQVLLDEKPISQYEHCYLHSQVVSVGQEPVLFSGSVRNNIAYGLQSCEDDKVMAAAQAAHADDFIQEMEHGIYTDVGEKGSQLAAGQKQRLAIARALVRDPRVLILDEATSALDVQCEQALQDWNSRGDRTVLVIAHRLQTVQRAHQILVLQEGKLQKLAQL
Experimental: FIG. 4: Processing of the preprocalcitonin16-25 peptide is proteasome- and TAP-independent. A. IGR-Heu target cells were incubated for 2 h at 37° C. in the presence or absence of the proteasome-specific inhibitor epoxomicin, and then Heu161 cells were added. The autologous Heu127 clone, recognizing on IGR-Heu a proteasome-dependent mutated α-actinin-4 peptide, was included as a positive control. TNFβ released in medium after 24 h of culture was measured as above. B. 293-EBNA cells were cotransfected with pCEP4 containing either cDNA 150 (upper panel) or the mutated α-actinin-4 cDNA (lower panel), with pcDNA3.1 containing an HLA-A*0201 construct, and with various amounts of vector pBJi-neo containing IPC47 cDNA. CTL clones Heu161 (upper panel) or Heu127 (lower panel) were then added. Controls included 293-EBNA cells transfected with HLA-A2 or pBJi-neo-IPC47 alone, and incubation of transfectants with either preprocalcitonin or α-actinin-4 peptides. Data shown are representative of four independent experiments.
The involvement of TAP was tested by cotransfecting into 293-EBNA cells constructs coding for the antigenic peptide, for HLA-A2, and for the immediate-early protein ICP47 of herpes simplex virus type 1, which binds to and inhibits human TAP (BANKS et al., Virology, 200, 236-45, 1994).

[5] = system: CTL clone Heu161; experiment: CTL stimulation (TNF release) by synthetic peptides loaded on HLA-A2+ MZ2-MEL.3.1 melanoma cells; format: cell-based, human
Experimental: FIG. 3: Identification of the antigenic peptide recognized by CTL clone Heu161. A. CTL stimulation with purified synthetic peptides. Peptides were loaded on allogeneic HLA-A2^+ MZ2-MEL.3.1 melanoma cells for 60 min at room temperature before addition of CTL clone Heu161. TNF release was measured 16 h later. Empty circles represent the results obtained with peptide SEQ ID NO: 1, full circles represent the results obtained with peptide SEQ ID NO: 2, empty squares represent the results obtained with peptide SEQ ID NO: 24, full squares represent the results obtained with peptide SEQ ID NO: 25 and empty diamonds represent the results obtained with peptide SEQ ID NO: 26. B. Lytic activity of CTL clone on peptide-pulsed cells. ^51Cr-labeled Heu-EBV-B cells were incubated over 60 min with the indicated concentrations of peptides before addition of CTL clone Heu161 at an E/T cell ratio of 10:1. Chromium release was measured after 4 h. Empty circles represent the results obtained with peptide SEQ ID NO: 1, full circles represent the results obtained with peptide SEQ ID NO: 2
TNFβ was detected by measuring the cytotoxicity of the culture medium on TNF-sensitive WEHI-164c13 cells with a MTT colorimetric assay (ESPEVIK & NISSEN-MEYER, J Immunol Methods, 95, 99-105, 1986).
We then prepared a series of calcitonin cDNA fragments truncated at their 5′ end and engineered to contain an initiation codon and a Kozak consensus sequence. […] Further trimming narrowed down the peptide-encoding region to residues 9-38 (FIG. 2B). Among a set of overlapping peptides covering this region, only two were recognized by CTL clone Heu161: VLLQAGSLHA (SEQ ID NO: 1) and LVLLQAGSLHA (SEQ ID NO: 2), which are identical, but with an additional leucine in the latter peptide. […] In a lysis assay, the decamer was slightly more efficient than the 11-mer peptide by a factor of about three (FIG. 3B). We concluded that the optimal antigenic peptide recognized by CTL clone Heu161 was VLLQAGSLHA (SEQ ID NO: 1) or preprocalcitonin16-25. This peptide corresponds exactly to the C-terminal part of the preprocalcitonin signal peptide (LE MOULLEC et al., FEBS Lett, 167, 93-7, 1984).

Row | Molecule | SPP expression at RNA level [1] | SPP expression at protein level [1] | sensitivity of tumor cells to lysis by anti-preprocalcitonin CTL clone [2] | also measured
1 | 5-GACAUGCCUGAAACAAUCAtt-3 [siRNA-S1] | specifically inhibit SPP expression | specifically inhibit SPP expression | strong decrease | –
2 | 5-UGAUUGUUUCAGGCAUGUCtg-3 [siRNA-S2] | specifically inhibit SPP expression | specifically inhibit SPP expression | strong decrease | –
3 | O=c1oc(Cl)c(Cl)c2ccccc12 [DCI, dichloroisocoumarin] | – | – | – | effect on lysis by anti-preprocalcitonin CTL clone [3]: totally resistant to lysis; effect on recognition by anti-α-actinin-4 CTL clone [3]: only a moderate effect
4 | ICP47: immediate-early protein ICP47 of herpes simplex virus type 1, which binds to and inhibits human TAP; expressed by cotransfection | – | – | – | effect on recognition of transfectants by anti-preprocalcitonin CTLs ([4]; cDNA 150 + HLA-A2, FIG. 4B): no detectable effect; effect on recognition of transfectants by anti-α-actinin-4 CTL clone ([4]; mutated α-actinin-4 cDNA + HLA-A2, FIG. 4B): strongly inhibited
5 | LVLLQAGSLHA [SEQ ID NO: 2] | – | – | – | EC50 ([5]; HLA-A2+ melanoma cells loaded 60 min, TNF release after 16 h, FIG. 3A, read-out: peptide concentration giving half-maximal effect (sensitization to recognition by CTL Heu161)): ~10 nM; recognition of peptide by CTL clone Heu161 ([5]; overlapping synthetic peptides of preprocalcitonin): recognized
